The target of this test is T1, histamine H3 receptors (Homo sapiens, UniProt Q9Y5N1).
T1 construct: expressed in transfected cells; host or cells: CHO K1 cells carrying pSwitch, transfected with pGeneH3, induced with mifepristone; clone 3H3; membrane preparation
Kind of test: Histamine H3 functional antagonist assay ([35S]-GTPγS SPA on membranes from H3 cells). The conditions noted are these: hydrochloride salts tested; H3 functional antagonist assay using membrane prepared from cultured H3 cells; averages of a number of experiments; read-out: functional pKi (fpKi) (converted). In kind it is biochemical. The method in brief:
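Membranes came from CHO K1 cells carrying a mifepristone-inducible (GeneSwitch) human H3 receptor, clone 3H3. Expression was induced with 10 nM mifepristone for 18 h. Membranes were prepared at 4 °C in 50 mM HEPES/1 mM EDTA pH 7.4 with protease inhibitors.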
(Binding of GTPγS marks nucleotide exchange on a G protein.)

Data on five compounds can be found in patent US20080161289A1, “Fused Thiazole Derivatives Having Affinity for the Histamine H3 Receptor” (Glaxo Group Limited, priority 2005, published 2008).

Structures are written as SMILES. A value given as a limit tells only on which side of the number the result lay.

T1 sequence (Q9Y5N1 whole entry): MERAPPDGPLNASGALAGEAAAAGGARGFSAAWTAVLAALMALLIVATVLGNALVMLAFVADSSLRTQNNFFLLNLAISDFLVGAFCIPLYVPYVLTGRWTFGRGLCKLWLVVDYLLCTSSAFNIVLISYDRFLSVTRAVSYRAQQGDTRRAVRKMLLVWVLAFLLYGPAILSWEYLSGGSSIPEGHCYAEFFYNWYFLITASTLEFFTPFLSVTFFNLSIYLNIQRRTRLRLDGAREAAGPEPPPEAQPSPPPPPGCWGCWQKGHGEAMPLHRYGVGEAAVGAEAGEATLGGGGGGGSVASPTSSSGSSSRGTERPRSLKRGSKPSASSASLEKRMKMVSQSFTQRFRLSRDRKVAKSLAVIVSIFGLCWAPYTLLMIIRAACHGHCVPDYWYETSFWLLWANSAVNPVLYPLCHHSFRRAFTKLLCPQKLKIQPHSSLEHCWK

In the case of `Cc1cccc(C(=O)N2CCC(c3nc4c(s3)CCN(C3CCC3)CC4)C2)n1` (centres unmarked) [Example E106, 6-Cyclobutyl-2-{1-[(6-methyl-2-pyridinyl)carbonyl]-3-pyrrolidinyl}-5,6,7,8-tetrahydro-4H-[1,3]thiazolo[4,5-d]azepine], the Ki is less than 31.6 nM.
The value for `c1cc(N2CCCC2)ncc1-c1nc2c(s1)CCN(C1CCC1)CC2` [Example E107, 6-Cyclobutyl-2-[6-(1-pyrrolidinyl)-3-pyridinyl]-5,6,7,8-tetrahydro-4H-[1,3]thiazolo[4,5-d]azepine] was more than 7.94 nM; that for `c1cc(N2CCOCC2)ncc1-c1nc2c(s1)CCN(C1CCC1)CC2` [Example E108, 6-Cyclobutyl-2-[6-(4-morpholinyl)-3-pyridinyl]-5,6,7,8-tetrahydro-4H-[1,3]thiazolo[4,5-d]azepine] was less than 1.26 nM.
The value for `N#Cc1cccc(-c2nc3c(s2)CCN(C2CCC2)CC3)c1` [Example E112, 3-(6-Cyclobutyl-5,6,7,8-tetrahydro-4H-[1,3]thiazolo[4,5-d]azepin-2-yl)benzonitrile] was less than 31.6 nM; that for `CN(C)c1ccc(-c2nc3c(s2)CCN(C2CCC2)CC3)cc1` [Example E116, 4-(6-Cyclobutyl-5,6,7,8-tetrahydro-4H-[1,3]thiazolo[4,5-d]azepin-2-yl)-N,N-dimethylaniline] was less than 1.26 nM.
